Results taken from paper PMC4982760, “Small-molecule inhibitors identify the RAD52-ssDNA interaction as critical for recovery from replication stress and for survival of BRCA2 deficient cells” (eLife, 2016).
Where a name gives a salt, the structure may show the parent alone. Read-outs that look alike come from different tables or passages of the source.

Columns and labels:
RAD52-ssDNA interaction = target: T1, RAD52-ssDNA interaction (Homo sapiens, UniProt P43351); assay: FRET-based ssDNA binding and wrapping assay (RAD52-Cy3-dT30-Cy5 complex); details: for FRET value at saturation: ssDNA; for FRET value at saturation / IC50 range for inhibition of ssDNA binding, in words: 1 nM Cy3-dT30-Cy5, 8 nM RAD52
T1 construct: made in house
T1 sequence (P43351 1-418): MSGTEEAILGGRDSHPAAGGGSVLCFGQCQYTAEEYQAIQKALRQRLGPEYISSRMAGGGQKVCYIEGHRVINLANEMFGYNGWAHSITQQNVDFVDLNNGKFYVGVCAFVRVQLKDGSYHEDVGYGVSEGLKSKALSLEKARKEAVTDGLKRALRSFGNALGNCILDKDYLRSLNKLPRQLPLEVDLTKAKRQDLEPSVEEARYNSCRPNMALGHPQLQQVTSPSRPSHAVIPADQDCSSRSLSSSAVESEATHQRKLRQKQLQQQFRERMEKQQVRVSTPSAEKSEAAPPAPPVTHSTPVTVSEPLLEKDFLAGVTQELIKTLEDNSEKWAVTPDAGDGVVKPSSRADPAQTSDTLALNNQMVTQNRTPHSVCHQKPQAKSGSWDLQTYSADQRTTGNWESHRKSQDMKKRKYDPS
Experimental: We titrated increasing amounts of each compound into a cuvette containing preformed stoichiometric RAD52-Cy3-dT30-Cy5 complexes (1 nM Cy3-dT30-Cy5 and 8 nM RAD52). […] At each concentration of the compound, the FRET signal was adjusted for the change in Cy3 and Cy5 fluorescence in the presence of the compound, but in the absence of protein.
FRET-based ssDNA binding, dsDNA binding, and annealing assays were carried out as previously described ([Grimme et al., 2010]; [Grimme and Spies, 2011]) using Cary Eclipse spectrofluorimeter (Varian) at 25°C in buffer containing 30 mM Tris-Acetate pH7.5, 1 mM DTT, and 0.1 mg/mL BSA. Cy3 dye was excited at 530 nm and its emission was monitored at 565 nm. Emission of Cy5 acceptor fluorophore excited through the energy transfer from Cy3 donor is monitored at 660 nm simultaneously with emission of Cy3 dye. Both the excitation and the emission slit widths were set to 10 nm.
All experiments were performed in triplicates, and the data are shown as averages and standard deviations for three independent measurements. To remove possible experimental artifacts associated with chromogenic or fluorogenic compounds, as well as with the compounds that may quench or enhance Cy3 or Cy5 fluorescence, we also performed control titrations whereby we titrated each compound into 1 nM Cy3-dT30-Cy5 in the absence of RAD52. For each compound concentration we subtracted the difference in the FRET signal in the presence and absence of the compound from the respective FRET signal in the presence of RAD52. The FRET signal corrected for the compound fluorescence was calculated using the equation: FRETapp=4.2∗ICy5/4.2∗ICy5+ 1.7∗ICy3
as previously described ([Grimme et al., 2010]; [Grimme and Spies, 2011]) and plotted as a function of compound concentration and fitted to the following inhibition model” FRET([small molecule])=FRET0−FRETmin/1+10^(LogIC50−Log([small molecule])∗HillSlope),
where FRET0 is the initial FRET value of the RAD52-ssDNA complex in the absence of the compound and FRETmin is the FRET value at complete inhibition. FRET values were calculated as an average of three or more independent annealing reactions plotted against the concentration of the compound. Inhibition of the RAD52-dsDNA interaction was assayed in a similar experiments, except the stoichiometric complexes containing 1 nM molecules of Cy3-Oligo28-Cy5 duplex DNA and 10 nM RAD52.

[1] = target: T2, RAD52-mediated ssDNA annealing (Homo sapiens, UniProt P43351); assay: FRET-based RAD52-mediated ssDNA annealing assay; format: biochemical
T2 construct: made in house
T2 sequence (P43351 1-418): T1 sequence (P43351 1-418)
From the text: To determine how the selected compounds affect the ssDNA annealing function of RAD52 we performed FRET-based annealing assays ([Grimme et al., 2010]; [Grimme and Spies, 2011]). These assays utilize two complementary single stranded 28-nucleotide-long substrates, which contain either Cy3 (T-28) or Cy5 (P-28) incorporated into the middle of the respective DNA strand. When the substrates are annealed by RAD52, the Cy3 and Cy5 dyes are separated by 3 base pairs and yield a high FRET signal (Figure 2—figure supplement 2). […] The annealing reactions were initiated by mixing two half reactions and observing the change in FRET over time in the presence of varying concentrations of small molecules. An increasing FRET value over time indicates the formation of the dsDNA duplex which brings the two dyes in close proximity (Figure 2—figure supplement 2). Fitting the annealing data to a double exponential allowed us to calculate and compare the final extent of annealing at varying concentrations of each compound compared to RAD52 alone. We plotted the final extent of annealing vs the concentration of the compound and calculated an IC50 of annealing inhibition. […] At the stoichiometric RAD52: dsDNA ratio, (1 nM dsDNA: 10 nM RAD52) the dsDNA is bent upon RAD52 binding, which allows us to distinguish the RAD52-bound and free dsDNA (Figure 2—figure supplement 1).
Annealing of complementary oligonucleotides by RAD52 was monitored under identical conditions as the binding assays described above. For each assay, the reaction master mixture containing 8 nM RAD52 protein in the presence and absence of the compounds at varying concentrations was prepared at room temperature and divided into two half reactions. Following baseline buffer and protein measurements, 0.5 nM of T-28 ssDNA substrate was added to the reaction cuvette and the signal was allowed to stabilize. The annealing reaction was initiated upon addition of the second half-reaction pre-incubated with 0.5 nM P-28 ssDNA substrate. The fluorescence of Cy3 and Cy5 were measured simultaneously over the reaction time course (500 s). FRETapp values were calculated as an average of three or more independent annealing reactions plotted against time (s). The average FRET values were fitted to a double exponential to calculate the final extent of annealing using Graphpad Prism4 software. The calculated annealing extent was plotted as a function of compound concentration and fitted to the same model as we used to determine IC50 values for the inhibition of DNA annealing.

[2] = 1 nM Cy3-dT30-Cy5, 8 nM RAD52, 25°C, read-out: IC50 (DNA binding), ssDNA
[3] = 8 nM RAD52, 0.5 nM T-28 and 0.5 nM P-28, read-out: IC50 (Annealing extent), ssDNA
[4] = read-out: IC50 (Annealing extent), ssDNA, 8 nM RAD52, 0.5 nM T-28 and 0.5 nM P-28

FRET value at saturation (RAD52-ssDNA interaction) | IC50 range for inhibition of ssDNA binding, in words (RAD52-ssDNA interaction) | IC50 (RAD52-ssDNA interaction; [2]) [µM] | IC50 [1, 3] [µM] | SMILES | IC50 (RAD52-ssDNA interaction) [µM] | IC50 [1, 4] [µM] | IC50 [1] [µM]
0.50 ± 0.01 |  |  |  | COc1cc(N)c(Cl)cc1C(=O)NC1CCN(CCCOc2ccc(F)cc2)CC1OC (centres unmarked) [Compound 16, Cisapride Monohydrate] |  |  | 
0.41 ± 0.004 | nano-molar range | 0.255 ± 0.016 | 20 ± 0.7 | O=C(O[C@@H]1Cc2c(O)cc(O)cc2O[C@@H]1c1ccc(O)c(O)c1)c1cc(O)c(O)c(O)c1 [Compound 5, (−)−Epicatechin gallate] |  |  | 
0.51 ± 0.01 | nano-molar range | 0.563 ± 0.04 | 5.6 ± 0.6 | O=C1c2ccc(O)c(O)c2C(=O)c2c(O)ccc(O)c21 [Compound 15, Quinalizarin] |  |  | 
0.51 ± 0.01 | micro-molar range | 1.45 ± 0.11 | > 100 | Oc1cc(O)c2c(c1)O[C@H](c1ccc(O)c(O)c1)[C@H](O)C2 [Compound 7, (−)−Epicatechin] |  |  | 
 | high micro-molar range | > 800 | > 100 | C[C@H]1[C@H](C)CC[C@]2(C(=O)O)CC[C@]3(C)C(=CC[C@@H]4[C@@]5(C)C[C@@H](O)[C@H](O)[C@@](C)(CO)[C@@H]5CC[C@]43C)[C@H]12 [Compound 18, Asiatic Acid] |  |  | 
0.47 ± 0.01 | micro-molar range | 2 ± 0.17 | 3.8 ± 0.2 | C=C1c2cccc(O)c2C(=O)C2=C(O)[C@]3(O)C(=O)C(C(N)=O)=C(O)[C@@H](N(C)C)[C@@H]3[C@@H](O)[C@H]12 [Compound 3, Methacycline Hydrochloride] |  |  | 

SMILES | FRET value at saturation (RAD52-ssDNA interaction) | IC50 range for inhibition of ssDNA binding, in words (RAD52-ssDNA interaction) | IC50 (RAD52-ssDNA interaction; [2]) [µM] | IC50 [1, 3] [µM] | IC50 (RAD52-ssDNA interaction) [µM] | IC50 [1, 4] [µM] | IC50 [1] [µM]
CN(C)[C@@H]1C(O)=C(C(=O)NCN2CCCC2)C(=O)[C@@]2(O)C(O)=C3C(=O)c4c(O)cccc4[C@@](C)(O)[C@H]3C[C@@H]12 [Compound 4, Rolitetracycline] | 0.56 ± 0.04 | mid micro-molar range |  |  | 29 ± 8.2 | > 100 | 
O=c1c(O)c(-c2ccc(O)c(O)c2)oc2c(O)c(O)cc(O)c12 [Compound 19, Gossypetin] | 0.49 ± 0.01 | nano-molar range |  |  | 0.913 ± 0.058 |  | 6 ± 2.3
NCCc1cc(O)c(O)cc1O [Compound 14, Oxidopamine] | 0.50 ± 0.01 | nano-molar range |  |  | 0.779 ± 0.051 | > 100 | 
CC1(C)C(=O)C=C[C@@]2(C)C1=C(O)C(=O)[C@]1(C)[C@@H]2CC[C@@]2(C)[C@H](c3ccoc3)C[C@H]3O[C@]321 [Compound 17, Cedrelone] |  | high micro-molar range | > 300 | > 100 |  |  | 
